Converted amounts (≈) assume the structure as drawn. *1 amine or outer side, *2 acyl side, *3 side chain or, on linkers, in order; H or OH if unused. Where a SMILES comes first, the peptide text is derived from it. [ ]: non-standard residue; d: D form. X1 = CC[C@@H](C)[C@@H](O[*:1])C(=O)[*:2]; NMeVal(β-OH) = CN[C@H](C(=O)O)C(C)(C)O; NMeF = CN[C@@H](Cc1ccccc1)C(=O)O; aIle = CC[C@@H](C)[C@H](N)C(=O)O; NMeV = CN[C@H](C(=O)O)C(C)C
How the values were obtained:
[1] = system: A. nidulans FGSC89 aureobasidin resistant colonies; assay: Drug resistance of aureobasidin resistant mutants of A. nidulans; conditions: for sensitivities of the resistant cells compared with the parent strain: UV-induced resistant colonies vs FGSC89
A. terreus = A. terreus TIMM No. 0120; cited from earlier work
C. parapsilosis = C. parapsilosis TIMM No. 0287; cited from earlier work
A. nidulans = A. nidulans TIMM No. 0112; cited from earlier work
Fonsecaea pedrosoi = Fonsecaea pedrosoi TIMM No. 0482; cited from earlier work
C. kefyr = C. kefyr TIMM No. 0298; cited from earlier work
Cr. terreus = Cr. terreus TIMM No. 0424; cited from earlier work
[2] = system: Sake yeast Kyokai K-701/pAUR1; assay: Aureobasidin sensitivity of transformant after subculture without aureobasidin A; conditions: K-701/pAUR1 vs Sake yeast Kyokai K-701
Epidermophyton floccosum = Epidermophyton floccosum TIMM No. 0431; cited from earlier work
A. nidulans FGSC89 = assay: Sensitivity of parent strain to aureobasidin
A. clavatus = A. clavatus TIMM No. 0056; cited from earlier work
C. guilliermondii = C. guilliermondii TIMM No. 0257; cited from earlier work
Cr. neoformans = Cr. neoformans TIMM No. 0354; cited from earlier work
[3] = system: C. albicans var. stellatoidea; conditions: C. albicans var. stellatoidea TIMM No. 1308; cited from earlier work
[4] = system: Paracoccidioides brasiliensis; conditions: Paracoccidioides brasiliensis TIMM No. 0880; cited from earlier work
Histoplasma capsulatum = conditions: cited from earlier work
C. krusei = C. krusei TIMM No. 0270; cited from earlier work
[5] = system: Schizo. pombe haploid cell strain JY745; assay: Sensitivity of parent strain to aureobasidin
Blastomyces dermatitidis = Blastomyces dermatitidis TIMM No. 0126; cited from earlier work
Penicillium commune = Penicillium commune TIMM No. 1331; cited from earlier work
[6] = system: S. cerevisiae DKD5D resistant mutant clones; assay: Resistance of aureobasidin resistant mutants of S. cerevisiae; type: cell-based, Saccharomyces cerevisiae; conditions: 34 EMS mutant clones of DKD5D
Experimental: (§1) Then resistant mutants were separated on an agar plate of a complete nutritional medium YPD (1% of yeast extract, 2% of polypeptone, 2% of glucose) containing 5 μg/ml or 1.5 μg/ml of aureobasidin A. After repeating the mutagenesis several times, 34 mutant clones were obtained.

Schizo. pombe = assay: MIC of aureobasidin, test strain or cell (Table 3); type: cell-based, Schizosaccharomyces pombe
C. glabrata = C. glabrata TIMM No. 1062; cited from earlier work
Cladosporium bantianum = Cladosporium bantianum TIMM No. 0343; cited from earlier work
[7] = cited from earlier work
[8] = system: C. albicans TIMM0136 transformants; assay: MIC for C. albicans transformants obtained with SalI-linearized pUscaur1R-C; type: cell-based, Candida albicans; conditions: C. albicans TIMM0136 transformants by SalI-linearized pUscaur1R-C
Experimental: 14-a) 5 μg of a linear plasmid, which had been prepared by cleaving pUscaur1^R-C with SalI capable of cleaving at one point in the pUC119 region, was transformed into C. albicans TIMM0136 by the lithium acetate method.

S. cerevisiae = assay: MIC of aureobasidin, test strain or cell (Table 3); type: cell-based, Saccharomyces cerevisiae
mouse lymphoma L5178Y = assay: MIC of aureobasidin, test strain or cell (Table 3); type: cell-based
C. albicans = C. albicans TIMM No. 0136; cited from earlier work
Exophiala werneckii = Exophiala werneckii TIMM No. 1334; cited from earlier work
Geotrichum candidum = Geotrichum candidum TIMM No. 0694; cited from earlier work
S. cerevisiae DKD5D = assay: Sensitivity of parent strain to aureobasidin; type: cell-based, Saccharomyces cerevisiae
Experimental: as §1

Rhodotorula rubra = Rhodotorula rubra TIMM No. 0923; cited from earlier work
C. tropicalis = C. tropicalis TIMM No. 0312; cited from earlier work
[9] = system: Sake yeast Kyokai K-701 transformants; assay: Aureobasidin A resistance of sake yeast transformants obtained with pYCscaur1R-C; conditions: transformants by pYCscaur1R-C, after subculture over several generations
[10] = system: Sake yeast Kyokai K-701 transformants; assay: Aureobasidin A resistance of sake yeast transformants obtained with StuI-linearized plasmids; conditions: transformants by StuI-linearized plasmids, after subculture over several generations
[11] = system: Schizo. pombe diploid cells (resistant strains x LH121); assay: Resistance of diploids formed by crossing resistant strains with normal strain LH121; type: cell-based, Schizosaccharomyces pombe; conditions: five diploids, resistant strains crossed with LH121
NRK-49F = assay: MIC of aureobasidin, test strain or cell (Table 3); type: cell-based
[12] = in contrast to existing antimycotics with only a fungistatic action; cited from earlier work
A. fumigatus = A. fumigatus TIMM No. 0063; cited from earlier work
mouse lymphoma EL-4 = assay: MIC of aureobasidin, test strain or cell (Table 3); type: cell-based
[13] = system: Trichophyton mentagrophytes; conditions: Trichophyton mentagrophytes TIMM No. 1189; cited from earlier work

In the case of `C[C@@H]1[C@H](O)[C@@H](C)/C=C/C=C/C=C/C=C/C=C/C=C/C=C/[C@H](O[C@@H]2O[C@H](C)[C@@H](O)[C@H](N)[C@@H]2O)C[C@@H]2O[C@](O)(C[C@@H](O)C[C@@H](O)[C@H](O)CC[C@@H](O)C[C@@H](O)CC(=O)O[C@H]1C)C[C@H](O)[C@H]2C(=O)O` [amphotericin B], the “sensitivities of the resistant cells compared with the parent strain” value (“sensitivities … compared with the parent strain” below) [1] is reported as “the same as the parent strain”.

In the case of `CC[C@@H](C)[C@@H]1NC(=O)[C@@H]2CCCN2C(=O)[C@H](Cc2ccccc2)N(C)C(=O)[C@H](Cc2ccccc2)NC(=O)[C@H](C(C)C)N(C)C(=O)[C@@H]([C@H](C)CC)OC(=O)[C@H](C(C)(C)O)N(C)C(=O)[C@H](CC(C)C)NC(=O)[C@H](C(C)C)N(C)C1=O` [aureobasidin A] (cyclo(F[NMeF]P[aIle][NMeV]L[NMeVal(β-OH)][X1][NMeV])), the MIC (A. terreus) is given as 5 µg/mL (≈ 4.54 µM), the MIC (C. parapsilosis) is given as 0.16 µg/mL (≈ 0.145 µM) and the MIC (A. nidulans) is given as 0.16 µg/mL (≈ 0.145 µM). The MIC (Fonsecaea pedrosoi) was 0.31 µg/mL (≈ 0.281 µM), the MIC (C. kefyr) was 0.16 µg/mL (≈ 0.145 µM) and the MIC (Cr. terreus) was 0.31 µg/mL (≈ 0.281 µM). The “aureobasidin resistance relative to the parent strain” value [2] was “eight times”, the MIC (Epidermophyton floccosum) was 2.5 µg/mL (≈ 2.27 µM) and the “sensitivity to aureobasidin at” value (A. nidulans FGSC89) was 5 µg/mL. For the same compound, the MIC (A. clavatus) was 0.16 µg/mL (≈ 0.145 µM), the MIC (C. guilliermondii) was 0.08 µg/mL (≈ 0.0726 µM) and the MIC (Cr. neoformans) was 0.63 µg/mL (≈ 0.572 µM). The “resistance to (concentration of aureobasidin)” value ([1]; eight UV-induced resistant colonies) was 80 µg/mL, the MIC [3] was “≦0.04 μg/ml” and the MIC [4] was 0.31 µg/mL (≈ 0.281 µM). The MIC (Histoplasma capsulatum) was 0.16 µg/mL (≈ 0.145 µM), the MIC (C. krusei) was “≦0.04 μg/ml” and the “sensitivity to aureobasidin at a concentration of” value [5] was 0.08 µg/mL. The MIC (Blastomyces dermatitidis) was 0.31 µg/mL (≈ 0.281 µM), the MIC (Penicillium commune) was 1.25 µg/mL (≈ 1.13 µM) and the “resistant to (concentration of aureobasidin A)” value [6] was “more than 25 μg/ml”. The MIC (Schizo. pombe) was 0.08 µg/mL, the MIC (C. glabrata) was “≦0.04 μg/ml” and the MIC (Cladosporium bantianum) was 0.63 µg/mL (≈ 0.572 µM). The toxicity in mammal [7] was “extremely low toxicity”, the MIC [8] was no less than 10 µg/mL and the MIC (S. cerevisiae) was 0.31 µg/mL. For the same compound, the MIC (mouse lymphoma L5178Y) was 100 µg/mL, the MIC (C. albicans) was “≦0.04 μg/ml” and the MIC (Exophiala werneckii) was 1.25 µg/mL (≈ 1.13 µM). For the same compound, the MIC (Geotrichum candidum) was 0.63 µg/mL (≈ 0.572 µM), the “sensitivity to aureobasidin at a concentration of” value (S. cerevisiae DKD5D) was 0.31 µg/mL and the MIC (Rhodotorula rubra) was 0.63 µg/mL (≈ 0.572 µM). The MIC (C. tropicalis) was 0.08 µg/mL (≈ 0.0726 µM), the “aureobasidin A resistance relative to the parent strain” value [9] was “at least 10 times” and the “aureobasidin A resistance relative to the parent strain” value [10] was “at least 10 times”. The “resistant to (concentration of aureobasidin A)” value [11] was 25 µg/mL, the MIC (NRK-49F) was 12.5 µg/mL and the “action (germicidal versus fungistatic)” value [12] was “germicidal action”. The MIC (A. fumigatus) was 20 µg/mL (≈ 18.2 µM), the MIC (mouse lymphoma EL-4) was 10 µg/mL and the MIC [13] was 10 µg/mL (≈ 9.08 µM).

With `Clc1ccccc1C(c1ccccc1)(c1ccccc1)n1ccnc1` [clotrimazole] the “sensitivities … compared with the parent strain” value [1] was “the same as the parent strain”.

For `C[C@@H]1C[C@@H]([C@H](O)CC2CC(=O)NC(=O)C2)C(=O)[C@@H](C)C1` [cycloheximide], the “sensitivities … compared with the parent strain” value [1] was “the same as the parent strain”.
